Biological target: T1, hPLCγ1 (Homo sapiens, UniProt P19174, I813T)
T1 construct: specific activities of PLCγ1^wt and PLCγ2^wt full-length proteins; made in house; host or cells: Escherichia coli T7 Express lysY/Iq
T1 sequence (P19174 1-1291 isoform P19174-2 I813T): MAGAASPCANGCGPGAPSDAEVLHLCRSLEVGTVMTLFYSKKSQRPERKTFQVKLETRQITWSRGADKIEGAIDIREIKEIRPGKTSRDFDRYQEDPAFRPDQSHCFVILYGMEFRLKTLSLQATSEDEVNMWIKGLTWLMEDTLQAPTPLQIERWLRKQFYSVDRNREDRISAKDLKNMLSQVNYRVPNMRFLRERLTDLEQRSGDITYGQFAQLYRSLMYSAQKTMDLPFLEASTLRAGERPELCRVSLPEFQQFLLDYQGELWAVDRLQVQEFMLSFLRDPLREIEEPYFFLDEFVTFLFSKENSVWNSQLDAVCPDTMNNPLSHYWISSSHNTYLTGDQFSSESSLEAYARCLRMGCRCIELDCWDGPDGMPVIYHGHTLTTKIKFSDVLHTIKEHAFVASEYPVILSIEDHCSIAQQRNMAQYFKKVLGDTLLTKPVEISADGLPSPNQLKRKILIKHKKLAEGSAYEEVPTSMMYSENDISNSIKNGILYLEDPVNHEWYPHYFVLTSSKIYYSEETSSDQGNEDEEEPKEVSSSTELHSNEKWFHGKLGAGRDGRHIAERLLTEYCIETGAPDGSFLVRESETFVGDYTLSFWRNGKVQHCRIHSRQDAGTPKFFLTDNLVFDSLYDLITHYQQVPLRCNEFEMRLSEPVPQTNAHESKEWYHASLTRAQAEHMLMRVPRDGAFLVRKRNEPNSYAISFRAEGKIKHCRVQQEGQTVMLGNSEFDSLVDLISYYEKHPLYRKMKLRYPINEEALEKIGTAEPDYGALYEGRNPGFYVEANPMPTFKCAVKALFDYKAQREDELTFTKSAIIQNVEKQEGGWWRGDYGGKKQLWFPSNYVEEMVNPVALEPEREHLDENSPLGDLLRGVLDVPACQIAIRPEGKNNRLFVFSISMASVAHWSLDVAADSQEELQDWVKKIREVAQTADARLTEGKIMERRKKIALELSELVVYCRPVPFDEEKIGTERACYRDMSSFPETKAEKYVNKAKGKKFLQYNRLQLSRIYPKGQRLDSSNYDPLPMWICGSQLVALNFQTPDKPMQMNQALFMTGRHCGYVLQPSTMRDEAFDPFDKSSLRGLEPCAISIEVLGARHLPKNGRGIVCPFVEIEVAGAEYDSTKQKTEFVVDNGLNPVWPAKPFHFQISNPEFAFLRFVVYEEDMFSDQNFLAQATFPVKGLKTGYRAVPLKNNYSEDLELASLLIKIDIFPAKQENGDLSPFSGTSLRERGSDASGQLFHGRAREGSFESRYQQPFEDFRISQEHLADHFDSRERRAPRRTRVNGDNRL
Test: Hydrogen deuterium exchange mass spectrometry (HDX-MS), apo vs 10 µM ADP
Type: binding
Protocol: HDX reactions comparing apo hPLCγ1 to hPLCγ1 incubated with ADP were carried out in a 15 µl reaction volume containing 10 pmol of hPLCγ1 (0.67 µM) and 10 µM of ADP and 1.67% DMSO. The exchange reactions were initiated by the addition of 10.0 µl of D2O buffer (25 mM HEPES pH 7.5, 150 mM NaCl, 2 mM TCEP 92.25% D2O (V/V)) to 5.0 µl of protein (final D2O concentration of 61.5%). Reactions proceeded for 3 s at 0°C, 30 s, 300 s and 3000 s at 20°C before being quenched with ice cold acidic quench buffer, resulting in a final concentration of 0.6M guanidine HCl and 0.9% formic acid post quench. All conditions and time points were created and run in independent triplicate. Samples were flash frozen immediately after quenching and stored at -80°C until injected onto the ultra-performance liquid chromatography (UPLC) system for proteolytic cleavage, peptide separation and injection onto a QTOF for mass analysis, described below.
Protein samples were rapidly thawed and injected onto an integrated fluidics system containing a HDx-3 PAL liquid handling robot and climate-controlled (2°C) chromatography system (Trajan), a Waters Acquity UPLC I-Class Series System, as well as an Impact HD QTOF Mass spectrometer (Bruker). The full details of the automated LC system were previously described. The samples were run over an immobilised pepsin column (Affipro; Enzymate Protein Pepsin Column, 2.1 mm X 20 mm) at 200 µl/min for 3 minutes at 2°C. […]
Peptides were identified from the non-deuterated samples of p110α using data-dependent acquisition following tandem MS/MS experiments (0.5 s precursor scan from 150 to 2000 m/z; twelve 0.25 s fragment scans from 150 to 2000 m/z). MS/MS datasets were analysed using FragPipe v18.0 and peptide identification was carried out by using a false discovery-based approach using a database of purified proteins and known contaminants [[35–37]]. […]
HD-Examiner Software (Trajan) was used to automatically calculate the level of deuterium incorporation into each peptide. […] Deuteration levels were calculated using the centroid of the experimental isotope clusters. […]

difference in deuterium exchange (increase in exchange) (amino acids 24–35 in the nPH domain): 4.5–10% | difference in deuterium exchange (protection) (amino acids 330–347, 367–386, 863–882 and 957–973): 4.5–10% | difference in deuterium exchange (protection) (amino acids 481–495): > 10%
Compound: Nc1ncnc2c1ncn2[C@@H]1O[C@H](COP(=O)(O)OP(=O)(O)O)[C@@H](O)[C@H]1O [ADP]

Reference: article PMC12687421, “Characterisation of an allosteric site in PLCγ enzymes and implications for development of their specific inhibitors” (Biochemical Journal, 2025)
